Test results published in patent publication US6340689B1 (priority 1999, dated 2002).
Values after ≈ are worked out from the molar mass of the structure shown.

Experiments:
[1] = test system: L. pneumophila serogroup 5; assay: microbe, parasite or virus in culture; type: cell-based; details: Legionella pneumophila; for MIC: 48 h, read-out: MIC Range
[2] = test system: L. pneumophila serogroup 2; assay: microbe, parasite or virus in culture; type: cell-based; details: Legionella pneumophila; for MIC: 48 h, read-out: MIC Range
[3] = test system: L. pneumophila serogroup 7; assay: microbe, parasite or virus in culture; type: cell-based; details: Legionella pneumophila; for MIC: 48 h, read-out: MIC Range
[4] = test system: L. longbeacheae; assay: organism not typed; type: cell-based; details: for MIC: 48 h, read-out: MIC Range
[5] = test system: Erythromycin-susceptible Legionella spp. other than L. pneumophila; type: cell-based; details: Erythromycin-susceptible Legionella spp. (n = 13); 4 × MIC; mean ± SD
[6] = test system: L. pneumophila serogroup 8, 9; assay: microbe, parasite or virus in culture; type: cell-based; details: Legionella pneumophila; for MIC: 48 h, read-out: MIC Range
[7] = test system: L. pneumophila serogroup 1; assay: microbe, parasite or virus in culture; type: cell-based, Legionella pneumophila; details: Legionella pneumophila; for MIC: 48 h, read-out: MIC Range; for MIC90: L. pneumophila serogroup 1 (n = 85)
[8] = test system: isolates of Legionella pneumophila and other Legionella spp.; assay: microbe, parasite or virus in culture; type: cell-based
[9] = test system: L. dumoffii; assay: organism not typed; type: cell-based; details: for MIC: 48 h, read-out: MIC Range
[10] = test system: Other Legionella spp.; assay: microbe, parasite or virus in culture; type: cell-based; details: for MIC: 48 h, read-out: MIC Range
[11] = test system: Erythromycin-susceptible L. pneumophila; type: cell-based, Legionella pneumophila; details: Erythromycin-susceptible L. pneumophila (n = 15); 4 × MIC; mean ± SD
[12] = test system: L. pneumophila serogroup 6; assay: microbe, parasite or virus in culture; type: cell-based; details: Legionella pneumophila; for MIC: 48 h, read-out: MIC Range
[13] = test system: L. micadadei; assay: organism not typed; type: cell-based, L. micdadei; details: for MIC: 48 h, read-out: MIC Range
[14] = test system: L. pneumophila serogroup 4; assay: microbe, parasite or virus in culture; type: cell-based; details: Legionella pneumophila; for MIC: 48 h, read-out: MIC Range
[15] = test system: L. pneumophila serogroup 3; assay: microbe, parasite or virus in culture; type: cell-based; details: Legionella pneumophila; for MIC: 48 h, read-out: MIC Range

SMILES	MIC50 [1]	MIC90 [1]	MIC50 [2]	MIC90 [2]	MIC [2]	MIC50 [3]	MIC90 [3]	MIC [3]	MIC50 [4]	MIC90 [4]	MIC [4]	Mean PAE [5]	MIC50 [6]	MIC90 [6]	MIC [6]	MIC50 [7]	MIC [7]	MIC90 [7]	MIC50 [9]	MIC90 [9]	also measured
Cc1c(F)c(N2CCNC(C)C2)cc2c1c(=O)c(C(=O)O)cn2C1CC1 (stereo not drawn) [Grepafloxacin]	0.016 µg/mL (≈ 0.0445 µM)	0.03 µg/mL (≈ 0.0835 µM)	0.008 µg/mL (≈ 0.0223 µM)	0.016 µg/mL (≈ 0.0445 µM)	0.004 to 0.03 µg/mL (≈ 0.0111 to 0.0835 µM)	≤ 0.004 µg/mL	0.008 µg/mL (≈ 0.0223 µM)	0.004 to 0.008 µg/mL (≈ 0.0111 to 0.0223 µM)	0.03 µg/mL (≈ 0.0835 µM)	0.06 µg/mL (≈ 0.167 µM)	0.004 to 0.06 µg/mL (≈ 0.0111 to 0.167 µM)	1.67 ± 1 h	0.008 µg/mL (≈ 0.0223 µM)	0.008 µg/mL (≈ 0.0223 µM)	0.008 µg/mL (≈ 0.0223 µM)	0.016 µg/mL (≈ 0.0445 µM)	0.004 to 0.06 µg/mL (≈ 0.0111 to 0.167 µM)	0.016 µg/mL (≈ 0.0445 µM)	0.06 µg/mL (≈ 0.167 µM)	0.06 µg/mL (≈ 0.167 µM)	MIC90 [8]: 0.016 µg/mL (≈ 0.0445 µM); MIC [9]: 0.06 µg/mL (≈ 0.167 µM); MIC50 [10]: 0.03 µg/mL (≈ 0.0835 µM); MIC90 [10]: 0.03 µg/mL (≈ 0.0835 µM); MIC [10]: 0.004 to 0.03 µg/mL (≈ 0.0111 to 0.0835 µM); Mean PAE [11]: 2.62 ± 3 h; MIC50 [12]: 0.008 µg/mL (≈ 0.0223 µM); MIC90 [12]: 0.016 µg/mL (≈ 0.0445 µM); MIC [12]: 0.004 to 0.016 µg/mL (≈ 0.0111 to 0.0445 µM); MIC50 [13]: 0.008 µg/mL (≈ 0.0223 µM); MIC90 [13]: 0.016 µg/mL (≈ 0.0445 µM); MIC [13]: 0.004 to 0.016 µg/mL (≈ 0.0111 to 0.0445 µM); MIC50 [14]: 0.008 µg/mL (≈ 0.0223 µM); MIC90 [14]: 0.016 µg/mL (≈ 0.0445 µM); MIC [14]: 0.008 to 0.016 µg/mL (≈ 0.0223 to 0.0445 µM); MIC50 [15]: 0.008 µg/mL (≈ 0.0223 µM); MIC90 [15]: 0.016 µg/mL (≈ 0.0445 µM); MIC [15]: 0.004 to 0.016 µg/mL (≈ 0.0111 to 0.0445 µM)
CC[C@H]1OC(=O)[C@H](C)[C@@H](O[C@H]2C[C@@](C)(OC)[C@@H](O)[C@H](C)O2)[C@H](C)[C@@H](O[C@@H]2O[C@H](C)C[C@H](N(C)C)[C@H]2O)[C@](C)(OC)C[C@@H](C)C(=O)[C@H](C)[C@@H](O)[C@]1(C)O [Clarithromycin]	0.03 µg/mL (≈ 0.0401 µM)	0.06 µg/mL (≈ 0.0802 µM)	0.03 µg/mL (≈ 0.0401 µM)	0.06 µg/mL (≈ 0.0802 µM)	0.004 to 0.06 µg/mL (≈ 0.00535 to 0.0802 µM)	0.016 µg/mL (≈ 0.0214 µM)	0.06 µg/mL (≈ 0.0802 µM)	0.016 to 0.06 µg/mL (≈ 0.0214 to 0.0802 µM)	0.06 µg/mL (≈ 0.0802 µM)	0.06 µg/mL (≈ 0.0802 µM)	0.008 to 0.06 µg/mL (≈ 0.0107 to 0.0802 µM)	0.98 ± 2 h	0.06 µg/mL (≈ 0.0802 µM)	0.06 µg/mL (≈ 0.0802 µM)	0.06 µg/mL (≈ 0.0802 µM)	0.06 µg/mL (≈ 0.0802 µM)	0.004 to 0.12 µg/mL (≈ 0.00535 to 0.16 µM)	0.06 µg/mL (≈ 0.0802 µM)	0.03 µg/mL (≈ 0.0401 µM)	0.06 µg/mL (≈ 0.0802 µM)	MIC [1]: 0.03 to 0.06 µg/mL (≈ 0.0401 to 0.0802 µM); MIC [9]: 0.03 to 0.06 µg/mL (≈ 0.0401 to 0.0802 µM); MIC50 [10]: 0.03 µg/mL (≈ 0.0401 µM); MIC90 [10]: 0.12 µg/mL (≈ 0.16 µM); MIC [10]: 0.004 to 0.12 µg/mL (≈ 0.00535 to 0.16 µM); Mean PAE [11]: 0.72 ± 2 h; MIC50 [12]: 0.016 µg/mL (≈ 0.0214 µM); MIC90 [12]: 0.06 µg/mL (≈ 0.0802 µM); MIC [12]: 0.004 to 0.06 µg/mL (≈ 0.00535 to 0.0802 µM); MIC50 [13]: 0.06 µg/mL (≈ 0.0802 µM); MIC90 [13]: 0.06 µg/mL (≈ 0.0802 µM); MIC [13]: 0.03 to 0.12 µg/mL (≈ 0.0401 to 0.16 µM); MIC50 [14]: 0.03 µg/mL (≈ 0.0401 µM); MIC90 [14]: 0.06 µg/mL (≈ 0.0802 µM); MIC [14]: 0.004 to 0.06 µg/mL (≈ 0.00535 to 0.0802 µM); MIC50 [15]: 0.03 µg/mL (≈ 0.0401 µM); MIC90 [15]: 0.06 µg/mL (≈ 0.0802 µM); MIC [15]: 0.016 to 0.06 µg/mL (≈ 0.0214 to 0.0802 µM)
CC[C@H]1OC(=O)[C@H](C)[C@@H](O[C@H]2C[C@@](C)(OC)[C@@H](O)[C@H](C)O2)[C@H](C)[C@@H](O[C@@H]2O[C@H](C)C[C@H](N(C)C)[C@H]2O)[C@](C)(O)C[C@@H](C)CN(C)[C@H](C)[C@@H](O)[C@]1(C)O [Azithromycin]	0.03 µg/mL (≈ 0.0401 µM)	0.25 µg/mL (≈ 0.334 µM)	0.06 µg/mL (≈ 0.0801 µM)	0.12 µg/mL (≈ 0.16 µM)	0.008 to 0.12 µg/mL (≈ 0.0107 to 0.16 µM)	0.06 µg/mL (≈ 0.0801 µM)	0.06 µg/mL (≈ 0.0801 µM)	0.06 µg/mL (≈ 0.0801 µM)	0.12 µg/mL (≈ 0.16 µM)	0.25 µg/mL (≈ 0.334 µM)	0.016 to 0.25 µg/mL (≈ 0.0214 to 0.334 µM)	1.86 ± 2 h	0.06 µg/mL (≈ 0.0801 µM)	0.06 µg/mL (≈ 0.0801 µM)	0.06 µg/mL (≈ 0.0801 µM)	0.06 µg/mL (≈ 0.0801 µM)	0.008 to 1 µg/mL (≈ 0.0107 to 1.34 µM)	0.5 µg/mL (≈ 0.668 µM)	0.12 µg/mL (≈ 0.16 µM)	0.25 µg/mL (≈ 0.334 µM)	MIC [1]: 0.008 to 0.5 µg/mL (≈ 0.0107 to 0.668 µM); MIC [9]: 0.12 to 0.25 µg/mL (≈ 0.16 to 0.334 µM); MIC50 [10]: 0.12 µg/mL (≈ 0.16 µM); MIC90 [10]: 0.5 µg/mL (≈ 0.668 µM); MIC [10]: 0.016 to 0.5 µg/mL (≈ 0.0214 to 0.668 µM); Mean PAE [11]: 2.91 ± 3 h; MIC50 [12]: 0.06 µg/mL (≈ 0.0801 µM); MIC90 [12]: 0.12 µg/mL (≈ 0.16 µM); MIC [12]: 0.016 to 0.25 µg/mL (≈ 0.0214 to 0.334 µM); MIC50 [13]: 0.25 µg/mL (≈ 0.334 µM); MIC90 [13]: 0.25 µg/mL (≈ 0.334 µM); MIC [13]: 0.016 to 0.25 µg/mL (≈ 0.0214 to 0.334 µM); MIC50 [14]: 0.12 µg/mL (≈ 0.16 µM); MIC90 [14]: 0.12 µg/mL (≈ 0.16 µM); MIC [14]: 0.008 to 0.25 µg/mL (≈ 0.0107 to 0.334 µM); MIC50 [15]: 0.12 µg/mL (≈ 0.16 µM); MIC90 [15]: 0.25 µg/mL (≈ 0.334 µM); MIC [15]: 0.016 to 0.25 µg/mL (≈ 0.0214 to 0.334 µM)
